Laboratory results from patent US7923243B2, “Stress-responsive induction of a therapeutic agent and methods of use” (University of Southern California, priority 1999, dated 2011).

System: B/C10ME fibrosarcoma
Assay: Tumor formation and GCV treatment, B/C10ME fibrosarcoma in BALB/c mice
Format: in vivo
Conditions: 2×10^7 cells s.c.; GCV 100 mg/kg daily from day 21, tumor diameter about 2 cm
Protocol: Tumor Formation. Confluent cultures of B/C10ME clones were harvested with trypsin-EDTA (Gibco/BRL) and washed three times in PBS. Approximately 2×10^7 viable cells were resuspended in […] of PBS. Six- to eight-week-old BALB/c mice obtained from Jackson Laboratory were subcutaneously injected with an 18-gauge needle in their right flank. Tumors were palpable within 12 days of inoculation and bi-perpendicular measurements were taken of the progressively growing tumor daily. Tumor growth was monitored by measurement of the larger and smaller diameters. At the indicated times post-injection, mice were injected with GCV daily at a dosage of 100 mg/kg of body weight for about 10 days. Tumors were judged to have regressed after losing both measurability and palpability. For each retroviral construct, multiple injections of 2 to 3 independently derived transduced clonal cell lines were performed.
Complete Eradication of Tumors in G1NaGrpTk Transduced Cells. To directly compare the therapeutic efficacy of the G1NaGrpTk vector with G1TkSvNa, B/C10ME clones transduced with the respective retroviral constructs were injected subcutaneously at a dose of 2×10^7 cells per BALB/c mouse. As controls, the parental, non-transduced cells were also injected. Tumors were palpable after 12 days of injection. At day 21, when the average tumor diameter reached about 2 cm, GCV was administered. […]

In the case of `Nc1nc(O)c2ncn(COC(CO)CO)c2n1` [GCV, ganciclovir], the “tumor growth following GCV treatment” value is reported as “tumors continued to grow at various rates”.
